Source: patent publication US20130131111A1, “NMN MODULATORS FOR THE TREATMENT OF NEURODEGENERATIVE DISORDERS” (Babraham Institute, priority 2010, published 2013)

How the values were obtained:
Format in all cases: cell-based, mouse
[1] = test system: intracellular NAD(P)^+ levels in SCG cultures; experiment: NAD(P)+ levels in SCG explant cultures; settings: 100 nM FK866 for 8 h or 24 h; FIG. 2
Description: (§1) Explants were placed into L15 (Leibovitz) medium (Invitrogen), cleaned from other tissues, cut in half and six half explants were placed in the centre of 3.5 cm tissue culture dishes pre-coated with poly-L-lysine (20 μg/ml for 2 h; Sigma) and laminin (20 μg/ml for 2 h; Sigma). Explants were cultured in DMEM containing 4500 mg/L glucose and 110 mg/L sodium pyruvate (Sigma), 2 mM glutamine, 1% penicillin/streptomycin, 1/50 B27 serum supplement and 100 ng/ml 7S NGF (all from Invitrogen) and 4 μM aphidicolin (Sigma) to block proliferation of non-neuronal cells. Neurites were allowed to extend for 7 days in all cultures before any treatment. After this time, neurites were separated from their cell bodies using a scalpel. […] Bright-field images were captured on an Olympus IX81 inverted microscope using a Soft Imaging Systems F-View camera linked to a PC running the Analysis software. Images of the same field of neurites were captured just after or at regular intervals up to 48-72 hours after cut injuries.
At this time, the explants were collected in 100 μl H2O for NAD(P)^+ determination as described in Billington et al. (2008) J Biol Chem 283(10), 6367-6374.
The results of this analysis can be seen in FIG. 2. […] Therefore, the reduced intracellular levels of NMN^+ result in a reduction in the turnover of NMN^+ to NAD^+ by isoforms of Nmnat.

[2] = test system: neurites of SCG neurons; experiment: Vincristine-treated neurites of SCG explant cultures
Description: as §1
This experiment was performed in an analogous manner to that described in Examples 2 and 3, however the neurites, instead of being separated by the cell body with a cut, were treated with the neurotoxic chemotherapy drug vincristine. […] The distal part of the neurites was imaged immediately and at 24, 48 and 72 hours after adding the drugs.

[3] = test system: cut neurites of SCG neurons; experiment: Cut neurites of SCG explant cultures (Wallerian degeneration)
Description: as §1, with “injuries. […] In this experiment, SCG neurons were cultured for 7 days as described in the methodology, then the neurites were separated from the cell bodies by a scalpel, and the distal part of the neurites with respect to the cut was imaged immediately after the cut or 24 hours after the cut.” for “injuries.”

Structure (SMILES): O=C(/C=C/c1cccnc1)NCCCCC1CCN(C(=O)c2ccccc2)CC1 [FK866, N-[4-(1-benzoyl-4-piperidinyl)butyl]-3-(3-pyridinyl)-2E-propenamide]
- effect on NAD^+ levels [1]: depletion of NAD^+
- effect on vincristine-induced neurite degeneration ([2]; 0.02 μM vincristine plus 100 nM FK866, up to 72 hours, FIG. 5): protection
- neurite survival increase ([3]; FK866 100 nM, cut neurites, estimated): increased by four fold
- effect on injured (cut) neurites ([3]; FK866 100 nM, imaged 24 hours after cut, FIG. 3): preserving injured neurites in primary culture even if added shortly after cutting
- neuroprotective effect on cell bodies ([3]; data not shown): does not extend to cell bodies

Structure (SMILES): NC(=O)c1ccc[n+]([C@@H]2O[C@H](COP(=O)([O-])O)[C@@H](O)[C@H]2O)c1 [NMN, nicotinamide mononucleotide]
- effect of adding NMN with FK866 on vincristine-treated neurites ([2]; 0.02 μM vincristine plus 100 nM FK866 and 1 mM NMN, FIG. 5): protective effect is reverted
- effect of adding NMN^+ with FK866 on cut neurites ([3]; NMN^+ in combination with FK866, FIG. 4): reverts the protective effect of FK866

Structure (SMILES): CC[C@]1(O)C[C@H]2CN(CCc3c([nH]c4ccccc34)[C@@](C(=O)OC)(c3cc4c(cc3OC)N(C=O)[C@H]3[C@@](O)(C(=O)OC)[C@H](OC(C)=O)[C@]5(CC)C=CCN6CC[C@]43[C@@H]65)C2)C1 [Vincristine, vincristine]
- toxic effect on neurites ([2]; 0.02 μM vincristine alone): progressive distal-to-proximal degeneration of neurites
